Where two headings read alike, the source gives them in different places.

Assay type in all cases: biochemical
Common to all, as to conditions: 15 nM tritium labelled cAMP, 1 hr at room temperature, SPA beads

The target of one experiment is PDE1C (Homo sapiens, UniProt Q14123). In words: PDE1 inhibition assay (PDE1C), SPA with tritium labelled cAMP. As to the method: (§1) PDE1A, PDE1B and PDE1C assays were performed as follows: the assays were performed in 60 μL samples containing a fixed amount of the PDE1 enzyme (sufficient to convert 20-25% of the cyclic nucleotide substrate), a buffer (50 mM HEPES (4-(2-hydroxyethyl)-1-piperazineethanesulfonic acid) pH 7.6; 10 mM MgCl2; 0.02% Tween20), 0.1 mg/ml BSA (bovine serum albumin), 15 nM tritium labelled cAMP and varying amounts of inhibitors. Reactions were initiated by addition of the cyclic nucleotide substrate, and reactions were allowed to proceed for 1 hr at room temperature before being terminated through mixing with 20 μL (0.2 mg) yttrium silicate SPA beads (PerkinElmer). The beads were allowed to settle for 1 hr in the dark before the plates were counted in a Wallac 1450 Microbeta counter. The measured signals were converted to activity relative to an uninhibited control (100%) and IC50 values were calculated using XIFit (model 205, IDBS).
Sequence of PDE1C (Q14123 whole entry): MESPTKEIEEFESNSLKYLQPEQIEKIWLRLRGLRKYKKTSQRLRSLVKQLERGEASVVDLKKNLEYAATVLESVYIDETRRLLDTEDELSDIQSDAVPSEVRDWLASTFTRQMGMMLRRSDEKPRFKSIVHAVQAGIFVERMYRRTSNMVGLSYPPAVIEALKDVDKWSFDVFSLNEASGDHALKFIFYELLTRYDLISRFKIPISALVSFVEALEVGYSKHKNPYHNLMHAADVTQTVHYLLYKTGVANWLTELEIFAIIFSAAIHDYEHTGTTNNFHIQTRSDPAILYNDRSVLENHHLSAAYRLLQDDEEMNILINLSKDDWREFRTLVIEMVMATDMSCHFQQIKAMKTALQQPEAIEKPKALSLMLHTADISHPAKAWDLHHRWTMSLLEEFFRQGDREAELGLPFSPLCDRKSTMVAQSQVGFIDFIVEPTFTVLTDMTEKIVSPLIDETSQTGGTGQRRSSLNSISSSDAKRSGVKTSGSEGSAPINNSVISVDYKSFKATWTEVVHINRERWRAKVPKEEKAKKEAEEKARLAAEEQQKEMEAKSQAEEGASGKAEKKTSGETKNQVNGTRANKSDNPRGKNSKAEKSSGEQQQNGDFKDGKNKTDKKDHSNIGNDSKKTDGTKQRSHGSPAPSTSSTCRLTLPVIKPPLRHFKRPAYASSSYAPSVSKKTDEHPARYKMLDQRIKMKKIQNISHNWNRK

The target in another experiment is PDE1A (Homo sapiens, UniProt P54750). The experiment in a line: PDE1 inhibition assay (PDE1A), SPA with tritium labelled cAMP. Here is the method:
as §1

Another experiment deals with PDE1B (Homo sapiens, UniProt Q01064). The experiment in a line: PDE1 inhibition assay (PDE1B), SPA with tritium labelled cAMP. As to the method: Reactions were initiated by addition of the cyclic nucleotide substrate, and reactions were allowed to proceed for 1 hr at room temperature before being terminated through mixing with 20 μL (0.2 mg) yttrium silicate SPA beads (PerkinElmer).
Sequence of PDE1B (Q01064 whole entry): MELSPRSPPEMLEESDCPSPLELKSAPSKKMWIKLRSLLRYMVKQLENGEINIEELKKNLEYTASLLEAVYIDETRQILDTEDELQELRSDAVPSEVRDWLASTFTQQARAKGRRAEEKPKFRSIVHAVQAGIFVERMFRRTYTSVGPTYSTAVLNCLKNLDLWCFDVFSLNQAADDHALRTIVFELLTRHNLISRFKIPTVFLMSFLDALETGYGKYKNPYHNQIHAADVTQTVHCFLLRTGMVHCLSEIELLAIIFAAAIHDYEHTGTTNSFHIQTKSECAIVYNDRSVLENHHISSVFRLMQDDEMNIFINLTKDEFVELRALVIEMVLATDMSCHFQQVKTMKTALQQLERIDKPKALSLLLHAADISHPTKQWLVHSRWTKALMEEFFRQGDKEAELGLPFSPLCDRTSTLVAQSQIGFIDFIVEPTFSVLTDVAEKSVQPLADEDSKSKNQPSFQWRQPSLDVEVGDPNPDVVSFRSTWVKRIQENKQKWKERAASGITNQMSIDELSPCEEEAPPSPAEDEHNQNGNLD

Sequence of PDE1A (P54750 whole entry): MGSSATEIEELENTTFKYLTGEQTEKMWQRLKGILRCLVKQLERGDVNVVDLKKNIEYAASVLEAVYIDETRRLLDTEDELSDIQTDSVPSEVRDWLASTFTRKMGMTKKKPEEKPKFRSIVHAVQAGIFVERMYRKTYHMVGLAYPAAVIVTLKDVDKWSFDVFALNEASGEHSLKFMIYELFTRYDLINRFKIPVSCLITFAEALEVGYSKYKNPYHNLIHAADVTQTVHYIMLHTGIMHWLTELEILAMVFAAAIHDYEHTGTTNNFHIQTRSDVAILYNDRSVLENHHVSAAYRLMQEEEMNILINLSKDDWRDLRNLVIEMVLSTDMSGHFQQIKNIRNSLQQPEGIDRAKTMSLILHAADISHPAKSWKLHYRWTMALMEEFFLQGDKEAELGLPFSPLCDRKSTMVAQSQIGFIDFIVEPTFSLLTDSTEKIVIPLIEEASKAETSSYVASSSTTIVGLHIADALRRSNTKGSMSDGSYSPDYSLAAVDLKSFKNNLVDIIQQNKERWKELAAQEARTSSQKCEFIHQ

As usually defined, the IC50 is the concentration that gives 50% inhibition. Take `CCOc1ncccc1-c1cc(NCc2cnc(C)s2)c2c(C(C)C)nc(C)n2n1` [Example 17, 2-(2-ethoxy-3-pyridyl)-5-isopropyl-7-methyl-N-[(2-methylthiazol-5-yl)methyl]imidazo[1,5-b]pyridazin-4-amine]: the IC50 amounted to 5.7 nM against PDE1C; 6.1 nM against PDE1A; 1.5 nM at PDE1B (read-out: PDE1B, IC50).
As for `CCOc1ncccc1-c1cc(NCc2cn[nH]c2)c2c(C(C)C)nc(C)n2n1` [Example 18, 2-(2-ethoxy-3-pyridyl)-5-isopropyl-7-methyl-N-(1H-pyrazol-4-ylmethyl)imidazo[1,5-b]pyridazin-4-amine], the IC50 turned out to be 16 nM on PDE1C; 33 nM on PDE1A; 5.7 nM at PDE1B (read-out: PDE1B, IC50).
As to `CCOc1ncccc1-c1cc(NCc2cnn(C)c2)c2c(C(C)C)nn(C)c2n1` [Example 19, 6-(2-ethoxy-3-pyridyl)-3-isopropyl-1-methyl-N-[(1-methylpyrazol-4-yl)methyl]pyrazolo[3,4-b]pyridin-4-amine], the concentration for half-maximal inhibition (IC50) came out at 56 nM against PDE1C; 44 nM at PDE1A; 5.8 nM at PDE1B (read-out: PDE1B, IC50).
On the same counts, the results for `CCOc1ncccc1-c1cc(NCc2nnn(C)n2)c2c(C(C)C)nn(C)c2n1` [Example 20, 6-(2-ethoxy-3-pyridyl)-3-isopropyl-1-methyl-N-[(2-methyltetrazol-5-yl)methyl]pyrazolo[3,4-b]pyridin-4-amine] are 30 nM, 16 nM and 2.8 nM.
Regarding `CCOc1ncccc1-c1cc(NCc2ccn(C)n2)c2c(C(C)C)nn(C)c2n1` [Example 21, 6-(2-ethoxy-3-pyridyl)-3-isopropyl-1-methyl-N-[(1-methylpyrazol-3-yl)methyl]pyrazolo[3,4-b]pyridin-4-amine], the IC50 against PDE1C was 36 nM; on PDE1A it was 30 nM; at PDE1B (read-out: PDE1B, IC50), 5.3 nM.
On to `CCOc1ncccc1-c1cc(NCc2cnn(C)c2)c2c(C(C)C)nc(C)n2n1` [Example 22, 2-(2-ethoxy-3-pyridyl)-5-isopropyl-7-methyl-N-[(1-methylpyrazol-4-yl)methyl]imidazo[1,5-b]pyridazin-4-amine], for which the IC50 against PDE1C amounted to 16 nM; on PDE1A it was 17 nM; on PDE1B (read-out: PDE1B, IC50) it was 1.8 nM.
The like results for `CCOc1ncccc1-c1cc(NCc2nnn(C)n2)c2c(C(C)C)nc(C)n2n1` [Example 23, 2-(2-ethoxy-3-pyridyl)-5-isopropyl-7-methyl-N-[(2-methyltetrazol-5-yl)methyl]imidazo[1,5-b]pyridazin-4-amine] were, in that order, 4.7 nM, 5.4 nM and 0.77 nM.
`CCOc1ncccc1-c1cc(NCc2ccn(C)n2)c2c(C(C)C)nc(C)n2n1` [Example 24, 2-(2-ethoxy-3-pyridyl)-5-isopropyl-7-methyl-N-[(1-methylpyrazol-3-yl)methyl]imidazo[1,5-b]pyridazin-4-amine]: the half-inhibitory concentration (IC50) against PDE1C worked out at 13 nM; against PDE1A, 14 nM; on PDE1B (read-out: PDE1B, IC50) it was 1.8 nM.
As for `CCOc1ncccc1-c1cc(NCc2cncc(OC)c2)c2c(C(C)C)nn(C)c2n1` [Example 25, 6-(2-ethoxy-3-pyridyl)-3-isopropyl-N-[(5-methoxy-3-pyridyl)methyl]-1-methyl-pyrazolo[3,4-b]pyridin-4-amine], the IC50 came to 18 nM against PDE1C; 16 nM against PDE1A; 6.3 nM on PDE1B (read-out: PDE1B, IC50).
With `CCOc1ncccc1-c1cc(NCc2cnn(C)n2)c2c(C(C)C)nn(C)c2n1` [Example 26, 6-(2-ethoxypyridin-3-yl)-3-isopropyl-1-methyl-N-((2-methyl-2H-1,2,3-triazol-4-yl)methyl)-1H-pyrazolo[3,4-b]pyridin-4-amine], the 50% inhibitory concentration (IC50) against PDE1C was 75 nM; on PDE1A it was 110 nM; at PDE1B (PDE1B, IC50 (nM)) it was 18 nM.
For `CCOc1ncccc1-c1cc(NCc2cnc(C)o2)c2c(C(C)C)nn(C)c2n1` [Example 27, 6-(2-ethoxy-3-pyridyl)-3-isopropyl-1-methyl-N-[(2-methyloxazol-5-yl)methyl]pyrazolo[3,4-b]pyridin-4-amine], the 50% inhibitory concentration (IC50) at PDE1C worked out at 60 nM; against PDE1A, 53 nM; at PDE1B (read-out: PDE1B, IC50), 10 nM.
Consider `CCOc1ncccc1-c1cc(NCc2cnc(C)s2)c2c(C(C)C)nn(C)c2n1` [Example 28, 6-(2-ethoxy-3-pyridyl)-3-isopropyl-1-methyl-N-[(2-methylthiazol-5-yl)methyl]pyrazolo[3,4-b]pyridin-4-amine], for which the IC50 came out at 13 nM at PDE1C; 14 nM on PDE1A; 4.4 nM at PDE1B (read-out: PDE1B, IC50).
On to `CCOc1ncccc1-c1cc(NCc2cn(C)nn2)c2c(C(C)C)nn(C)c2n1` [Example 29, 6-(2-ethoxy-3-pyridyl)-3-isopropyl-1-methyl-N-[(1-methyltriazol-4-yl)methyl]pyrazolo[3,4-b]pyridin-4-amine], for which the IC50 against PDE1C was found to be 33 nM; against PDE1A it was 18 nM; at PDE1B (read-out: PDE1B, IC50), 1.6 nM.
Turning to `CCOc1ncccc1-c1cc(NCc2cn[nH]c2)c2c(C(C)C)nn(C)c2n1` [Example 30, 6-(2-ethoxy-3-pyridyl)-3-isopropyl-1-methyl-N-(1H-pyrazol-4-ylmethyl)pyrazolo[3,4-b]pyridin-4-amine], the IC50 at PDE1C turned out to be 76 nM; against PDE1A it was 85 nM; on PDE1B (read-out: PDE1B, IC50), 16 nM.
For the compound `CCOc1ncccc1-c1cc(NCc2nnc(C)o2)c2c(C(C)C)nn(C)c2n1` [Example 31, 6-(2-ethoxy-3-pyridyl)-3-isopropyl-1-methyl-N-[(5-methyl-1,3,4-oxadiazol-2-yl)methyl]pyrazolo[3,4-b]pyridin-4-amine], the IC50 was 110 nM against PDE1C; 110 nM at PDE1A; 16 nM at PDE1B (read-out: PDE1B, IC50).
Regarding `CCOc1ncccc1-c1cc(NCc2nc(C)no2)c2c(C(C)C)nn(C)c2n1` [Example 32, 6-(2-ethoxy-3-pyridyl)-3-isopropyl-1-methyl-N-[(3-methyl-1,2,4-oxadiazol-5-yl)methyl]pyrazolo[3,4-b]pyridin-4-amine], the half-maximal inhibitory concentration (IC50) came to 63 nM on PDE1C; 82 nM on PDE1A; 7.8 nM at PDE1B (read-out: PDE1B, IC50).
As for `CCCOc1ncccc1-c1cc(NCc2ncn(C)n2)c2c(C(C)C)nn(C)c2n1` [Example 33, 3-isopropyl-1-methyl-N-[(1-methyl-1,2,4-triazol-3-yl)methyl]-6-(2-propoxy-3-pyridyl)pyrazolo[3,4-b]pyridin-4-amine], the IC50 against PDE1C turned out to be 5.2 nM; against PDE1A it was 3.4 nM; on PDE1B (read-out: PDE1B, IC50), 0.42 nM.
As for `CCCOc1ncccc1-c1cc(NCc2cn(C)cn2)c2c(C(C)C)nn(C)c2n1` [Example 34, 3-isopropyl-1-methyl-N-[(1-methylimidazol-4-yl)methyl]-6-(2-propoxy-3-pyridyl)pyrazolo[3,4-b]pyridin-4-amine], the half-inhibitory concentration (IC50) at PDE1C is 3.8 nM; against PDE1A it was 2.7 nM; on PDE1B (read-out: PDE1B, IC50), 0.29 nM.
As to `CCOc1ncccc1-c1cc(NCc2nccc(C)n2)c2c(C(C)C)nn(C)c2n1` [Example 35, 6-(2-ethoxy-3-pyridyl)-3-isopropyl-1-methyl-N-[(4-methylpyrimidin-2-yl)methyl]pyrazolo[3,4-b]pyridin-4-amine], the IC50 against PDE1C stood at 180 nM; on PDE1A it was 200 nM; on PDE1B (read-out: PDE1B, IC50), 25 nM.
Regarding `CCOc1ncccc1-c1cc(NCc2ncccn2)c2c(C(C)C)nn(C)c2n1` [Example 36, 6-(2-ethoxy-3-pyridyl)-3-isopropyl-1-methyl-N-(pyrimidin-2-ylmethyl)pyrazolo[3,4-b]pyridin-4-amine], the IC50 worked out at 77 nM against PDE1C; 50 nM on PDE1A; 4 nM at PDE1B (read-out: PDE1B, IC50).
For the compound `CCOc1ncccc1-c1cc(NCc2ccc(OC)nc2)c2c(C(C)C)nn(C)c2n1` [Example 37, 6-(2-ethoxy-3-pyridyl)-3-isopropyl-N-[(6-methoxy-3-pyridyl)methyl]-1-methyl-pyrazolo[3,4-b]pyridin-4-amine], the IC50 against PDE1C is 46 nM; against PDE1A, 120 nM; on PDE1B (read-out: PDE1B, IC50), 27 nM.
In the case of `CCOc1ncccc1-c1cc(NCc2cccnc2C(F)(F)F)c2c(C(C)C)nn(C)c2n1` [Example 38, 6-(2-ethoxy-3-pyridyl)-3-isopropyl-1-methyl-N-[[2-(trifluoromethyl)-3-pyridyl]methyl]pyrazolo[3,4-b]pyridin-4-amine], the IC50 against PDE1C was 180 nM; at PDE1A it was 180 nM; at PDE1B (read-out: PDE1B, IC50), 33 nM.
In the case of `CCOc1ncccc1-c1cc(NCc2cc(OC)ccn2)c2c(C(C)C)nn(C)c2n1` [Example 39, 6-(2-ethoxy-3-pyridyl)-3-isopropyl-N-[(4-methoxy-2-pyridyl)methyl]-1-methyl-pyrazolo[3,4-b]pyridin-4-amine], the IC50 at PDE1C was 25 nM; on PDE1A, 27 nM; on PDE1B (read-out: PDE1B, IC50) it was 3.4 nM.
Turning to `CCOc1ncccc1-c1cc(NCc2ccccn2)c2c(C(C)C)nn(C)c2n1` [Example 40, 6-(2-ethoxy-3-pyridyl)-3-isopropyl-1-methyl-N-(2-pyridylmethyl)pyrazolo[3,4-b]pyridin-4-amine], the half-inhibitory concentration (IC50) on PDE1C amounted to 82 nM; against PDE1A it was 68 nM; at PDE1B (read-out: PDE1B, IC50), 8.9 nM.

The values are drawn from patent publication US10351561B2, “Pyrazolo[3,4-b]pyridines and imidazo[1,5-b]pyridazines as PDE1 inhibitors” (H. Lundbeck A/S, priority 2016, dated 2019).
